Assay results taken from US7078437B2, “Apolipoprotein D degradation inhibitor” (Kao Corporation, priority 2003, dated 2006).

Tested on: apolipoprotein D
Test: Inhibitory effect against degradation of apolipoprotein D (human sweat concentrate treated with Brevibacterium epiderumidis cells, western blot)
Format: biochemical
Details: human sweat concentrate as apolipoprotein-D-containing sample; Brevibacterium epiderumidis cells as protease, about 10^8 cfu/mL; 37° C. for 24 hours; antibody-staining after SDS-PAGE
Method: Inhibitory effects of lauric acid and oleic acid on degradation of apolipoprotein D were studied using a human sweat concentrate as an apolipoprotein-D-containing sample and Brevibacterium epiderumidis cells as a protease.
(1) Preparation of Sweat Samples
The absorbent cotton balls were squeezed, whereby a solution (57.5 mL) was collected. The collected solution was filtered through a 0.45-μm filter and then concentrated by use of a MILLIPOR Centriprep YM-10.
Distilled water was added again to the concentrate, and the resultant solution was concentrated in a similar manner by use of a Centriprep YM-10, to thereby remove substances of low molecular weight. The product was employed as a sweat concentrate.
(2) 100 mM Tris-HCl buffer (0.03 mL), distilled water (0.02 mL), and each of lauric acid (Sigma) and oleic acid (Sigma) were added to an aliquot (0.04 mL) of the sweat concentrate prepared through the above method (1). […] Briefly, the cell-treated sweat concentrate was subjected to SDS polyacrylamide electrophoresis (SDS-PAGE) by use of a Ready Gel J (15% of separation gel concentration, Bio-Rad Laboratories, Inc.), and the thus-separated proteins were electrically transcribed from the gel onto a PVDF filter (Millipore Corporation, Immobilon transfer membrane). […]

SMILES	degradation of apolipoprotein D (percent residue of apolipoprotein D)
CCCCCCCCCCCC(=O)O [lauric acid]	degradation of apolipoprotein D was suppressed
CCCCCCCC/C=C\CCCCCCCC(=O)O [oleic acid]	degradation of apolipoprotein D was suppressed
